Activity calls are given as the source filed them. The rule behind the calls is not given here.
Columns and labels:
Nucleic Acid [1] = experiment: Binding affinity to C11U T box antiterminator model RNA at 100 to 300 uM after 130 mins by FRET assay; format: nucleic-acid assay
Nucleic Acid [2] = experiment: Stabilization of AM1A T box antiterminator model RNA assessed as effect on flexibility of RNA after 40 hrs by autoradiography based in-line probing assay; format: nucleic-acid assay
Nucleic Acid [3] = experiment: Binding affinity to AM1A T box antiterminator model RNA assessed as melting temperature at 100 uM by UV-thermal denaturation method (reference value: 51 deg C)
Nucleic Acid [4] = experiment: Stabilization of AM1A T box antiterminator model RNA assessed as reduction in flexibility at U6-C12 bulge region of RNA after 40 hrs by autoradiography based in-line probing assay; format: nucleic-acid assay
Nucleic Acid [5] = experiment: Binding affinity to AM1A T box antiterminator model RNA assessed as change in melting temperature at 100 uM by UV-thermal denaturation method; format: nucleic-acid assay
Nucleic Acid [6] = experiment: Binding affinity to AM1A T box antiterminator model RNA at 100 to 300 uM after 130 mins by FRET assay; format: nucleic-acid assay

Kd (Nucleic Acid [1]): 59 µM | Activity (Nucleic Acid [2]): Active | Tm (Nucleic Acid [3]): 52 °C | Activity (Nucleic Acid [4]): Active | Tm(app) (Nucleic Acid [5]): 69 °C | Kd (Nucleic Acid [6]): 56 µM
Structure (SMILES): CN(CCCc1ccccc1)Cc1cn(CC(O)COC(=O)NCc2ccccc2)nn1 (stereo unspecified)

From ChEMBL document CHEMBL1949656, “Characterization of a 1,4-disubstituted 1,2,3-triazole binding to T box antiterminator RNA” (Bioorg Med Chem, 2012)
